Target: Transitional endoplasmic reticulum ATPase (Homo sapiens, UniProt P55072, C522A)
Assay: C522A mutant p97 ATPase inhibitors, dose response, counter-screen for p97 inhibitor project, biochemical, luminescence (AID 1544)

Chain of Transitional endoplasmic reticulum ATPase (P55072 2-806 C522A limits assumed): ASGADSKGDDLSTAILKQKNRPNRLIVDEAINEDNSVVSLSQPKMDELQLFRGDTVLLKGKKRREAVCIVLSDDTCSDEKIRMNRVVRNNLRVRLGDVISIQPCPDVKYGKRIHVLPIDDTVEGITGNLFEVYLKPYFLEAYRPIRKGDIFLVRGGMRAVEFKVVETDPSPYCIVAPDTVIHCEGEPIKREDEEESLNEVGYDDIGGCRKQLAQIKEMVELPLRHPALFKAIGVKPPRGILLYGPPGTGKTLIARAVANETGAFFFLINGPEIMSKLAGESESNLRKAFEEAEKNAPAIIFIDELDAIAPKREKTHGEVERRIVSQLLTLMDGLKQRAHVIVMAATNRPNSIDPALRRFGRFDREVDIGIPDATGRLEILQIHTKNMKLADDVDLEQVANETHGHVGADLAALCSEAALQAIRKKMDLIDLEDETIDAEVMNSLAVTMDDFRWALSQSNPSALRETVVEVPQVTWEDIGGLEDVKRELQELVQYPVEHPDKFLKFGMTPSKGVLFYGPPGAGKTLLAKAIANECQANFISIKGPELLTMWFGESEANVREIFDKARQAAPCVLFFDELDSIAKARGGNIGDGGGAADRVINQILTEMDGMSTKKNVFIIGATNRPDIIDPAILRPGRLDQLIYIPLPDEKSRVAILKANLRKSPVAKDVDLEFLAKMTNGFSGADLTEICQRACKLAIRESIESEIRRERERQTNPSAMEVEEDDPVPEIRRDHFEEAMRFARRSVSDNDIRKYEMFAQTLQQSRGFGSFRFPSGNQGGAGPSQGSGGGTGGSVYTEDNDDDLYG

Row | SMILES | IC50 [µM]
1 | On1[o+]nc2c1CCc1nc(-c3ccccc3)[n-]c1-2 [3-oxidanidyl-7-phenyl-4,5-dihydro-1H-imidazo[4,5-g][2,1,3]benzoxadiazol-3-ium] | > 50
2 | NS(=O)(=O)c1ccc(N=NCc2ccc(O)c(O)c2O)c([N+](=O)[O-])c1 [4-[[(E)-(2,3-dihydroxy-4-oxo-1-cyclohexa-2,5-dienylidene)methyl]hydrazo]-3-nitrobenzenesulfonamide] | > 50
3 | COc1ccc(CN=Nc2nnc(-c3ccccc3)c(=O)[nH]2)cc1 [4-methoxybenzaldehyde (5-oxo-6-phenyl-4,5-dihydro-1,2,4-triazin-3-yl)hydrazone] | > 50
4 | CN(C)[C@@H]1C(=O)C(C(N)=O)C(=O)[C@@]2(O)C(=O)C3C(=O)c4c(O)cccc4[C@@](C)(O)[C@H]3[C@H](O)[C@@H]12 (stereo partly drawn) [(2E,4S,4aR,5S,5aR,6S,12aS)-2-[azanyl(oxidanyl)methylidene]-4-(dimethylamino)-6-methyl-5,6,10,11,12a-pentakis(oxidanyl)-4,4a,5,5a-tetrahydrotetracene-1,3,12-trione] | > 50
5 | Cc1ccc(SCC(=O)C(C#N)c2nc3ccccc3s2)cc1 (configuration not stated) [(2Z)-2-(3H-1,3-benzothiazol-2-ylidene)-3-keto-4-(p-tolylthio)butyronitrile] | > 50
6 | Oc1ccc(CN=Nc2ccnc3cc(Cl)ccc23)cc1O [(4Z)-4-[[2-(7-chloroquinolin-4-yl)hydrazinyl]methylidene]-2-hydroxycyclohexa-2,5-dien-1-one] | > 50
7 | Cc1ccc(C)c(SCC(=O)OCC(=O)C(C#N)c2nc3ccccc3[nH]2)c1 (configuration not stated) [MLS000392255] | > 50
